Test results as given in US20210188843A1, “QUINOLINE COMPOUNDS AND THEIR PREPARATION AND USE AS ANTIMALARIAL AGENTS” (The United States of America,as represented by the …, priority 2018, published 2021).
Values after ≈ are worked out from the molar mass of the structure shown. Read-outs that look alike come from different tables or passages of the source.

Key:
PAMPA permeability = type: in vitro ADME
Solubility pH 7.4 = type: physicochemical; details: aqueous buffer
[1] = Microsomal stability (rat); type: in vitro ADME; details: rat microsomes
[2] = test system: Asexual parasites of P. falciparum strain 3D7; experiment: In vitro drug activity on asexual parasites (SYBR Green assay); type: cell-based; details: Plasmodium falciparum, P. falciparum 3D7 asexual stage, 72 h, read-out: Asexual EC50
In short: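 Growth was measured by SYBR Green I fluorescence (excitation 490 nm, emission 520 nm) after freeze-thaw lysis and 30 min staining at room temperature. Parasites (0.5% parasitemia, 2% hematocrit) had been incubated 72 h with compound, DMSO below 0.5%. Conditions were run in duplicate with no-drug and RBC-alone controls.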

[3] = Table 1, read-out: Microsomal Stability (rat) T1/2
[4] = Table 3, read-out: Microsomal Stability (rat) T1/2

Structure (SMILES): Cc1cc(N2CC3(COC3)C2)c(C#N)cc1-n1c(=N)n(C)c2cnc3ccc(-c4ccc(Cl)cc4)cc3c21 [Compound 121, 5-(8-(4-chlorophenyl)-2-imino-3-methyl-2,3-dihydro-1H-imidazo[4,5-c]quinolin-1-yl)-4-methyl-2-(2-oxa-6-azaspiro[3.3]heptan-6-yl)benzonitrile]
- Papp (PAMPA permeability; Table 1): 6.2 ×10⁻⁶ cm/s
- solubility (Solubility pH 7.4; Table 1): 1.3 µg/mL (≈ 2.5 µM)
- half-life [1, 3]: > 30 min
- EC50 ([2]; Table 1): 0.148 µM

Structure (SMILES): Cc1ccc(C#N)cc1-n1c(=N)n(C)c2cnc3ccc(C#Cc4ccc(Cl)cc4)cc3c21 [Compound 155, 3-(8-((4-chlorophenyl)ethynyl)-2-imino-3-methyl-2,3-dihydro-1H-imidazo[4,5-c]quinolin-1-yl)-4-methylbenzonitrile]
- Papp (PAMPA permeability; Table 1): 916 ×10⁻⁶ cm/s
- solubility (Solubility pH 7.4; Table 1): < 1 µg/mL
- half-life [1, 3]: > 30 min
- EC50 ([2]; Table 1): 8.98 µM

Structure (SMILES): Cc1ncncc1-n1c(=N)n(C)c2cnc3ccc(-c4cccc(F)c4)cc3c21
- Papp (PAMPA permeability; Table 3): 1100 ×10⁻⁶ cm/s
- solubility (Solubility pH 7.4; Table 3): > 38 µg/mL
- half-life [1, 4]: > 30 min
- EC50 ([2]; Table 3): 1.25 µM

Structure (SMILES): N=c1ccc2cnc3ccc(-c4ccc(Cl)cc4)cc3c2n1-c1cccc(Cl)c1
- Papp (PAMPA permeability; Table 2): 1240 ×10⁻⁶ cm/s
- solubility (Solubility pH 7.4; Table 2): 20.7 µg/mL (≈ 49.7 µM)
- half-life ([1]; Table 2, read-out: Microsomal Stability (rat) T1/2): > 30 min
- EC50 ([2]; Table 2): 0.178 µM

Structure (SMILES): COc1cc(-c2ccc3ncc4c(c3c2)n(-c2cc(C#N)ccc2C)c(=N)n4C)ccc1Cl [Compound 31, 3-(8-(4-chloro-3-methoxyphenyl)-2-imino-3-methyl-2,3-dihydro-1H-imidazo[4,5-c]quinolin-1-yl)-4-methylbenzonitrile]
- Papp (PAMPA permeability; Table 1): 433 ×10⁻⁶ cm/s
- solubility (Solubility pH 7.4; Table 1): < 1 µg/mL
- half-life [1, 3]: > 30 min
- EC50 ([2]; Table 1): 0.0272 µM

Structure (SMILES): Cn1c(=N)n(-c2cncnc2)c2c3cc(-c4ccc(C(F)(F)F)nc4)ccc3ncc21
- Papp (PAMPA permeability; Table 3): 541 ×10⁻⁶ cm/s
- solubility (Solubility pH 7.4; Table 3): 31 µg/mL (≈ 73.6 µM)
- half-life [1, 4]: > 30 min
- EC50 ([2]; Table 3): 0.56 µM

Structure (SMILES): Cc1ccc(C#N)cc1-n1c(=N)n(C)c2cnc3ccc(C4=CCN(C)C4)cc3c21 [Compound 60, 3-(2-imino-3-methyl-8-(1-methyl-2,5-dihydro-1H-pyrrol-3-yl)-2,3-dihydro-1H-imidazo[4,5-c]quinolin-1-yl)-4-methylbenzonitrile]
- Papp (PAMPA permeability; Table 1): 2 ×10⁻⁶ cm/s
- solubility (Solubility pH 7.4; Table 1): > 39 µg/mL
- half-life [1, 3]: > 30 min
- EC50 ([2]; Table 1): 0.481 µM

Structure (SMILES): Cc1ccc(-c2ccc3ncc4c(c3c2)n(-c2cncnc2)c(=N)n4C)cn1
- Papp (PAMPA permeability; Table 3): 136 ×10⁻⁶ cm/s
- solubility (Solubility pH 7.4; Table 3): > 54 µg/mL
- half-life [1, 4]: > 30 min
- EC50 ([2]; Table 3): 0.191 µM

Structure (SMILES): CC(=O)N1CCN(c2cc(C)c(-n3c(=N)n(C)c4cnc5ccc(-c6ccc(Cl)cc6)cc5c43)cc2C#N)CC1 [Compound 109, 2-(4-acetylpiperazin-1-yl)-5-(8-(4-chlorophenyl)-2-imino-3-methyl-2,3-dihydro-1H-imidazo[4,5-c]quinolin-1-yl)-4-methylbenzonitrile]
- Papp (PAMPA permeability; Table 1): 838 ×10⁻⁶ cm/s
- solubility (Solubility pH 7.4; Table 1): < 1 µg/mL
- half-life [1, 3]: > 30 min
- EC50 ([2]; Table 1): 0.00433 µM

Structure (SMILES): Cc1ccc(C#N)cc1-n1c(=N)n(C)c2cnc3ccc(-c4ccc(F)cc4)cc3c21 [Compound 12, 3-(8-(4-fluorophenyl)-2-imino-3-methyl-2,3-dihydro-1H-imidazo[4,5-c]quinolin-1-yl)-4-methylbenzonitrile]
- Papp (PAMPA permeability; Table 1): 1030 ×10⁻⁶ cm/s
- solubility (Solubility pH 7.4; Table 1): 3.9 µg/mL (≈ 9.57 µM)
- half-life [1, 3]: > 30 min
- EC50 ([2]; Table 1): 0.0644 µM

Structure (SMILES): Cc1ccc(C#N)cc1-n1c(=N)n(C)c2cnc3ccc(-c4cccc(Cl)c4)cc3c21 [Compound 33, 3-(8-(3-chlorophenyl)-2-imino-3-methyl-2,3-dihydro-1H-imidazo[4,5-c]quinolin-1-yl)-4-methylbenzonitrile]
- Papp (PAMPA permeability; Table 1): 1820 ×10⁻⁶ cm/s
- solubility (Solubility pH 7.4; Table 1): 14.5 µg/mL (≈ 34.2 µM)
- half-life [1, 3]: > 30 min
- EC50 ([2]; Table 1): 0.297 µM

Structure (SMILES): C/N=c1\n(C)c2cnc3ccc(-c4ccc(Cl)cc4)cc3c2n1-c1cc(C#N)ccc1C [Compound 6, (E)-3-(8-(4-chlorophenyl)-3-methyl-2-(methylimino)-2,3-dihydro-1H-imidazo[4,5-c]quinolin-1-yl)-4-methylbenzonitrile]
- Papp (PAMPA permeability; Table 1): 921 ×10⁻⁶ cm/s
- solubility (Solubility pH 7.4; Table 1): 9.6 µg/mL (≈ 21.9 µM)
- half-life [1, 3]: > 30 min
- EC50 ([2]; Table 1): 0.279 µM

Structure (SMILES): Cn1c(=N)n(-c2ccccc2C#N)c2c3cc(-c4ccc(Cl)cc4)ccc3ncc21 [Compound 68, 2-(8-(4-chlorophenyl)-2-imino-3-methyl-2,3-dihydro-1H-imidazo[4,5-c]quinolin-1-yl)benzonitrile]
- Papp (PAMPA permeability; Table 1): 142 ×10⁻⁶ cm/s
- solubility (Solubility pH 7.4; Table 1): > 41 µg/mL
- half-life [1, 3]: > 30 min
- EC50 ([2]; Table 1): 1.45 µM

Structure (SMILES): Cn1c(=N)n(-c2cccc(N3CCNCC3)c2)c2c3cc(-c4ccc(Cl)cc4)ccc3ncc21 [Compound 76, 8-(4-chlorophenyl)-3-methyl-1-(3-(piperazin-1-yl)phenyl)-1,3-dihydro-2H-imidazo[4,5-c]quinolin-2-imine]
- Papp (PAMPA permeability; Table 1): 28.3 ×10⁻⁶ cm/s
- solubility (Solubility pH 7.4; Table 1): > 46 µg/mL
- half-life [1, 3]: > 30 min
- EC50 ([2]; Table 1): 0.802 µM

Structure (SMILES): Cc1ncncc1-n1c(=N)n(C)c2cnc3ccc(-c4ccc(F)cc4)cc3c21
- Papp (PAMPA permeability; Table 3): 1180 ×10⁻⁶ cm/s
- solubility (Solubility pH 7.4; Table 3): 6.2 µg/mL (≈ 16.1 µM)
- half-life [1, 4]: > 30 min
- EC50 ([2]; Table 3): 0.538 µM

Structure (SMILES): Cc1ccc(C#N)cc1-n1/c(=N/C(N)=O)n(C)c2cnc3ccc(-c4ccc(F)cc4)cc3c21 [Compound 55, (E)-1-(1-(5-cyano-2-methylphenyl)-8-(4-fluorophenyl)-3-methyl-1,3-dihydro-2H-imidazo[4,5-c]quinolin-2-ylidene)urea]
- Papp (PAMPA permeability; Table 1): 466 ×10⁻⁶ cm/s
- solubility (Solubility pH 7.4; Table 1): 1.3 µg/mL (≈ 2.89 µM)
- half-life [1, 3]: > 30 min
- EC50 ([2]; Table 1): 0.0951 µM

Structure (SMILES): COC(=O)/N=c1\n(C)c2cnc3ccc(-c4ccc(C)nc4)cc3c2n1-c1cc(C#N)ccc1C [Compound 125, methyl (E)-(1-(5-cyano-2-methylphenyl)-3-methyl-8-(6-methylpyridin-3-yl)-1,3-dihydro-2H-imidazo[4,5-c]quinolin-2-ylidene)carbamate]
- Papp (PAMPA permeability; Table 1): 243 ×10⁻⁶ cm/s
- solubility (Solubility pH 7.4; Table 1): 12.5 µg/mL (≈ 27 µM)
- half-life [1, 3]: > 30 min
- EC50 ([2]; Table 1): 0.0012 µM

Structure (SMILES): Cc1nc(N2CCOCC2)c(C#N)cc1-n1c(=N)n(C)c2cnc3ccc(-c4ccc(Cl)cc4)cc3c21 [Compound 21, 5-(8-(4-chlorophenyl)-2-imino-3-methyl-2,3-dihydro-H-imidazo[4,5-c]quinolin-1-yl)-6-methyl-2-morpholinonicotinonitrile]
- Papp (PAMPA permeability; Table 1): 1560 ×10⁻⁶ cm/s
- solubility (Solubility pH 7.4; Table 1): 4.4 µg/mL (≈ 8.63 µM)
- half-life [1, 3]: > 30 min
- EC50 ([2]; Table 1): 0.317 µM

Structure (SMILES): Cn1c(=N)n(-c2cncnc2)c2c3cc(-c4ccc(F)cc4)ccc3ncc21
- Papp (PAMPA permeability; Table 3): 26.2 ×10⁻⁶ cm/s
- solubility (Solubility pH 7.4; Table 3): 2 µg/mL (≈ 5.4 µM)
- half-life [1, 4]: > 30 min
- EC50 ([2]; Table 3): 0.194 µM

Structure (SMILES): Cc1ccc(-c2ccc3ncc4c(c3c2)n(-c2cncnc2)c(=N)n4C)cc1
- Papp (PAMPA permeability; Table 3): 32.3 ×10⁻⁶ cm/s
- solubility (Solubility pH 7.4; Table 3): 18.5 µg/mL (≈ 50.5 µM)
- half-life [1, 4]: > 30 min
- EC50 ([2]; Table 3): 0.23 µM

Structure (SMILES): COc1ccc(-c2ccc3ncc4c(c3c2)n(-c2cc(C#N)ccc2C)c(=N)n4C)cc1OC [Compound 41, 3-(8-(3,4-dimethoxyphenyl)-2-imino-3-methyl-2,3-dihydro-1H-imidazo[4,5-c]quinolin-1-yl)-4-methylbenzonitrile]
- Papp (PAMPA permeability; Table 1): 988 ×10⁻⁶ cm/s
- solubility (Solubility pH 7.4; Table 1): > 44 µg/mL
- half-life [1, 3]: > 30 min
- EC50 ([2]; Table 1): 0.0462 µM

Structure (SMILES): Cc1ccc(C#N)cc1-n1/c(=N/S(N)(=O)=O)n(C)c2cnc3ccc(-c4cccc(F)c4)cc3c21 [Compound 116]
- Papp (PAMPA permeability; Table 1): 1070 ×10⁻⁶ cm/s
- solubility (Solubility pH 7.4; Table 1): < 1 µg/mL
- half-life [1, 3]: 17.9 min
- EC50 ([2]; Table 1): 0.0278 µM

Structure (SMILES): Cc1cc(N2CCOCC2)c(C#N)cc1-n1c(=N)n(C)c2cnc3ccc(-c4ccc(Cl)cc4)cc3c21 [Compound 23, 5-(8-(4-chlorophenyl)-2-imino-3-methyl-2,3-dihydro-1H-imidazo[4,5-c]quinolin-1-yl)-4-methyl-2-morpholinobenzonitrile]
- Papp (PAMPA permeability; Table 1): 340 ×10⁻⁶ cm/s
- solubility (Solubility pH 7.4; Table 1): < 1 µg/mL
- half-life [1, 3]: > 30 min
- EC50 ([2]; Table 1): 0.0639 µM
